Reference: PMC5971303, “α-Amylase and α-Glucosidase Inhibitory Activities of Chemical Constituents from Wedelia chinensis (Osbeck.) Merr. Leaves” (Journal of Analytical Methods in Chemistry, 2018)

Key:
yeast α-glucosidase = assay: Assay for α-glucosidase inhibition (p-nitrophenyl-α-D-glucopyranoside substrate, absorbance at 405 nm); format: biochemical; details: for α-glucosidase inhibitory effect (in words): compared with acarbose; for α-Glucosidase IC50 ± SD: tested three times, mean ± SD
Protocol: The yeast α-glucosidase (G0660, Sigma-Aldrich) inhibition assay was performed using the substrate p-nitrophenyl-α-D-glucopyranoside according to the previously described method. […] After 5 min preincubation, 5 mM p-nitrophenyl-α-D-glucopyranoside solution ([…]) was added, and the solution was incubated at 37°C for 30 min. […]. Each concentration of samples was carried out in triplicate. The absorbance of released 4-nitrophenol was measured at 405 nm by using a microplate reader (xMark, Bio-Rad, USA). […] The inhibitory activity was calculated by the following equation: α-glucosidase inhibitory activity (%) = (1–A/A0) × 100, where A is the absorbance of the sample and A0 is the absorbance of the blank, respectively. The IC50 value was calculated by GraphPad Prism.
(§1) Inhibition of α-glucosidase is one very effective way of delaying glucose absorption and lowering the postprandial blood glucose level, which can potentially suppress the progression of DM.

[1] = biological target: T1, porcine pancreas α-amylase (Sus scrofa, UniProt P00690); assay: Assay for α-amylase inhibition (potato starch substrate, iodine, absorbance at 650 nm); format: biochemical; details: for α-amylase inhibitory effect (in words): compared with acarbose; for IC50: porcine pancreas α-amylase, tested three times, mean ± SD
T1 construct: purchased Sigma-Aldrich A3176
T1 sequence (P00690 16-511): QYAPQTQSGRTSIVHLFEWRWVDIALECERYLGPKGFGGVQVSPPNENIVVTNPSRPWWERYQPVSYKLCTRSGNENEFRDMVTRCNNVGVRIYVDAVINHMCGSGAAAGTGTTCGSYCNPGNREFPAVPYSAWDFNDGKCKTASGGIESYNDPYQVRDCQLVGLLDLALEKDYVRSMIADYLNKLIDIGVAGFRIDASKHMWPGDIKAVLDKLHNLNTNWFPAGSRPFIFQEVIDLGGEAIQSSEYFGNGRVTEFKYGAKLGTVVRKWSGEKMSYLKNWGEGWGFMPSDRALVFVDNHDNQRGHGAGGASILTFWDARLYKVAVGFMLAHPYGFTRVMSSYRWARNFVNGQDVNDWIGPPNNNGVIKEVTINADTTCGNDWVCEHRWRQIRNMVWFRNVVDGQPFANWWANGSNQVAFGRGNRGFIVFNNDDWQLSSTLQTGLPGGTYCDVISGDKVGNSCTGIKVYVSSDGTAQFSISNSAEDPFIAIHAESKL
Protocol: The substrate was prepared by boiling 100 mg potato starch in 5 mL phosphate buffer (pH 7.0) for 5 min and then cooling to room temperature. The sample ([…] dissolved in DMSO) and substrate ([…]) were mixed in […] of 0.1 M phosphate buffer (pH 7.0). After 5 min preincubation, 5 mg/mL α-amylase solution (20 mL) was added, and the solution was incubated at 37°C for 15 min. The reaction was stopped by adding […] of 1 M·HCl, and then, […] of iodine solution was added. The absorbances were measured at 650 nm by a microplate reader. […] The inhibitory activity was calculated by the following equation: α-amylase inhibitory activity (%) = (1–A/A0) × 100, where A is the absorbance of the sample and A0 is the absorbance of the blank, respectively. The IC50 value was calculated by GraphPad Prism.
as §1

| α-glucosidase inhibitory effect (in words) (yeast α-glucosidase) | α-Glucosidase IC50 ± SD (yeast α-glucosidase; yeast α-glucosidase) | α-amylase inhibitory effect (in words) [1] | IC50 [1] | SMILES | α-Glucosidase inhibition (symbol in IC50 column) (yeast α-glucosidase; yeast α-glucosidase, dash = no inhibition (less than 10% inhibition)) |
| --- | --- | --- | --- | --- | --- |
| moderate | 915.6 ± 36.5 µg/mL | moderate | 1350 µM | CC(O)C=CC12OC1(C)C(O)C(OS(=O)(=O)O)CC2(C)C [Compound 1, (3S,4R,5R,6S,9S,7E)-megastigman-5,6-epoxy-7-ene,4,9-diol,3-sulfonic acid] | – |
| moderate | – | moderate | 894 µM | C[C@@H]1CC[C@]2(C(=O)O)CC[C@]3(C)C(=CC[C@@H]4[C@@]5(C)CCC(=O)C(C)(C)[C@@H]5CC[C@]43C)[C@@H]2[C@]1(C)O [Compound 8, pomonic acid] | — ((‒): no inhibition (less than 10% inhibition)) |
| moderate | 821.4 ± 55.2 µg/mL | moderate | 837 µM | C[C@@H]1CC[C@]2(C(=O)O)CC[C@]3(C)C(=CC[C@@H]4[C@@]5(C)CC[C@H](O)C(C)(C)[C@@H]5CC[C@]43C)[C@@H]2[C@]1(C)O [Compound 9, pomolic acid] | – |

| SMILES | α-glucosidase inhibitory effect (in words) (yeast α-glucosidase) | α-Glucosidase IC50 ± SD (yeast α-glucosidase; yeast α-glucosidase) | α-amylase inhibitory effect (in words) [1] | IC50 [1] | α-Glucosidase inhibition (symbol in IC50 column) (yeast α-glucosidase; yeast α-glucosidase, dash = no inhibition (less than 10% inhibition)) |
| --- | --- | --- | --- | --- | --- |
| COc1cc(-c2cc(=O)c3c(O)c(OC)c(O)cc3o2)ccc1O [Compound 7, jaceosidin] | – | 785.9 ± 12.7 µg/mL | – | 342 µM | – |
